Drawing on patent publication US20250011318A1 (ARCUS BIOSCIENCES, INC., priority 2023, published 2025), this text covers IC50 and EC50 for ten compounds.

Where only a bound is given, the exact number is not on record here.

One assay addresses T1, Cbl-b (Homo sapiens, UniProt Q13191).
T1 construct: biotin (biotinylated)
The experiment in a line: Cbl-b probe displacement HTRF binding assay. The following applies: 0.4 nM biotinylated Cbl-b, 150 nM BODIPY probe. The procedure, abridged:
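Probe-displacement HTRF in Hepes/NaCl/Triton/TCEP/BSA buffer at room temperature: compound dilutions (to 10 μM) incubated 60 min with 0.4 nM biotin-Cbl-b, 150 nM BODIPY probe added for 15 min, Tb-streptavidin read. Signal normalised to DMSO and no-protein controls; IC50 from four-parameter curve.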
A general note: Time-resolved FRET reads energy transfer from a long-lived donor to a nearby acceptor.

A further assay deals with Jurkat cells. The experiment in a line: IL-2 secretion assay in CD3/CD28-activated Jurkat cells (AlphaLISA). The class given is cell-based, human. To be noted: Homo sapiens, CD3/CD28 T Cell Activator, 24 h, IL-2 AlphaLISA. The procedure, abridged:
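IL-2 release quantified by AlphaLISA in supernatants after 24 h CD3/CD28 activation at 37° C. Compounds, 10 μM to 300 pM final in 1:2 steps, were added to 50,000 Jurkat cells/well 1 h before activation; 4-parameter fit gave EC50.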
A general note: Alpha assays give light when donor and acceptor beads are brought close together.

T1 sequence (Q13191 whole entry, species assumed): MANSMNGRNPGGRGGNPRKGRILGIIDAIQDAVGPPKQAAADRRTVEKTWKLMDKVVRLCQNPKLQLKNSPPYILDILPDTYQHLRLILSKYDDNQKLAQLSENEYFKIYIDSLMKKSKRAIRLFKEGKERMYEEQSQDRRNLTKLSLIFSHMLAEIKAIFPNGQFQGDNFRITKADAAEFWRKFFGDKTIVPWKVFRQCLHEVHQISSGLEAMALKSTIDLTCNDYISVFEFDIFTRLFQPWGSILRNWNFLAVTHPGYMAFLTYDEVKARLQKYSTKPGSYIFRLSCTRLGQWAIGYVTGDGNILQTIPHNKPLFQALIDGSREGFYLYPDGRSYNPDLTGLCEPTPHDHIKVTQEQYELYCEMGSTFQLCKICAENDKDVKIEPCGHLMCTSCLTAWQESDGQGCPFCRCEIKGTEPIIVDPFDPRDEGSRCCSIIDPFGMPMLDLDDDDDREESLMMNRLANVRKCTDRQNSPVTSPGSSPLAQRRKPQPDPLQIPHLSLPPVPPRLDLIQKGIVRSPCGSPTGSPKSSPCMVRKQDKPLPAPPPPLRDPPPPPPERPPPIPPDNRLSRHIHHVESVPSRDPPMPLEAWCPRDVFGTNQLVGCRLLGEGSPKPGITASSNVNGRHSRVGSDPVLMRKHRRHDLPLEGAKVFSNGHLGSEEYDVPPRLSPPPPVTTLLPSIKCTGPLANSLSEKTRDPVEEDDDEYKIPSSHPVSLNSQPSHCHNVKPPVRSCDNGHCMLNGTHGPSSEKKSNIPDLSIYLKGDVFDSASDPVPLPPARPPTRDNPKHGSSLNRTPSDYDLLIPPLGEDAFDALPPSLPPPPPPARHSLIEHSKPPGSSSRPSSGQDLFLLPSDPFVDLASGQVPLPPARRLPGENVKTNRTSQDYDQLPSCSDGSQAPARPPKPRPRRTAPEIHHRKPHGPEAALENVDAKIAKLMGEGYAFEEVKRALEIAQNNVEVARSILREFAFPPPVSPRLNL

`C[C@H]1CCCN(Cc2cc3c(C4CC4)cn(-c4cc(-c5ccc(C#N)cc5-c5nncn5C)cc(Cl)n4)c(=O)c3[nH]2)C1` [Example 1, 4-[2-(2-{[(S)-3-methyl-1-piperidyl]methyl}-4-cyclopropyl-7-oxo-1,6-dihydro-1,6-diaza-6-indenyl)-6-chloro-4-pyridyl]-3-(4-methyl-4H-1,2,4-triazol-3-yl)benzonitrile]: the half-inhibitory concentration (IC50) at Cbl-b was < 100 nM. For the same compound, in the assay with Jurkat cells, the EC50 is < 100 nM.

Turning to `Cc1c[nH]nc1-c1cc(C#N)ccc1-c1cc(C2CC2)nc(-n2cc(C3CC3)c3cc(CN4CCC[C@H](C)C4)[nH]c3c2=O)c1` [Example 19, 4-[2-cyclopropyl-6-[4-cyclopropyl-2-[[(3S)-3-methylpiperidin-1-yl]methyl]-7-oxo-1H-pyrrolo[2,3-c]pyridin-6-yl]pyridin-4-yl]-3-(4-methyl-1H-pyrazol-3-yl)benzonitrile], the IC50 at Cbl-b is < 100 nM. In the assay on Jurkat cells, the half-maximal effective concentration (EC50) is < 100 nM.

Turning to `Cn1ncnc1-c1cc(F)ccc1-c1cc(C2CC2)nc(-n2cnc3cc(CNC4(C)CCC4)[nH]c3c2=O)c1` [Example 120, 3-[6-cyclopropyl-4-[4-fluoro-2-(2-methyl-1,2,4-triazol-3-yl)phenyl]-pyridin-2-yl]-6-[[(1-methylcyclobutyl)amino]methyl]-5H-pyrrolo[3,2-d]pyrimidin-4-one], the IC50 at Cbl-b was < 100 nM. For the same compound, the half-maximal effective concentration (EC50) in the assay with Jurkat cells was < 100 nM.

Turning to `COCCN(C)Cc1cc2ncn(-c3cc(-c4ccc(F)cc4-c4nncn4C)cc(C4CC4)n3)c(=O)c2[nH]1` [Example 34, 3-[6-cyclopropyl-4-[4-fluoro-2-(4-methyl-1,2,4-triazol-3-yl)phenyl]pyridin-2-yl]-6-[[2-methoxyethyl(methyl)amino]methyl]-5H-pyrrolo[3,2-d]pyrimidin-4-one], at Cbl-b, the 50% inhibitory concentration (IC50) is < 100 nM. Also, the concentration giving a half-maximal response (EC50) in the assay on Jurkat cells was < 100 nM.

For the compound `CCOc1cc(-c2ccc(F)cc2-c2nncn2C)cc(-n2cc(C3CC3)c3cc(CN4CCC[C@H](C)C4)[nH]c3c2=O)n1` [Example 9, 2-{[(S)-3-Methyl-1-piperidyl]methyl}-4-cyclopropyl-6-{6-ethoxy-4-[4-fluoro-2-(4-methyl-4H-1,2,4-triazol-3-yl)phenyl]-2-pyridyl}-1,6-dihydro-1,6-diaza-7-indenone], the half-inhibitory concentration (IC50) at Cbl-b is < 100 nM. Further, the EC50 in the assay with Jurkat cells is < 100 nM.

As to `COCCNCc1cc2ncn(-c3cc(-c4ccc(F)cc4-c4ncnn4C)cc(C4CC4)n3)c(=O)c2[nH]1` [Example 118, 3-[6-cyclopropyl-4-[4-fluoro-2-(2-methyl-1,2,4-triazol-3-yl)phenyl]-pyridin-2-yl]-6-[(2-methoxyethylamino)methyl]-5H-pyrrolo[3,2-d]pyrimidin-4-one], the IC50 at Cbl-b is < 100 nM. Further, in the assay on Jurkat cells, the 50% effective concentration (EC50) lay within 100 to 1000 nM.

For the compound `Cn1cnnc1-c1cc(F)ccc1-c1cc(C2CC2)nc(-n2cc(C#N)c3cc(C(O)C4CCOC4)[nH]c3c2=O)c1` (centres unmarked) [Example 90, 6-{6-cyclopropyl-4-[4-fluoro-2-(4-methyl-4H-1,2,4-triazol-3-yl)phenyl]-2-pyridyl}-2-[hydroxy(tetrahydro-3-furyl)methyl]-7-oxo-1,6-dihydro-1,6-diaza-4-indenecarbonitrile], the IC50 on Cbl-b was < 100 nM. Further, the EC50 in the assay with Jurkat cells is 100 to 1000 nM.

As for `Cc1ccnn1-c1cc(F)ccc1-c1cc(C2CC2)nc(-n2cc(C3CC3)c3cc(CNC4(C)CCC4)[nH]c3c2=O)c1` [Example 140, 4-cyclopropyl-6-[6-cyclopropyl-4-[4-fluoro-2-(5-methylpyrazol-1-yl)phenyl]pyridin-2-yl]-2-[[(1-methylcyclobutyl)amino]methyl]-1H-pyrrolo[2,3-c]pyridin-7-one], the IC50 at Cbl-b was < 100 nM. This compound also returned a 50% effective concentration (EC50) in the assay with Jurkat cells of 100 to 1000 nM.

On Cbl-b, `C[C@H]1CCCN(Cc2cc3c(C4CC4)cn(-c4cc(-c5ccc(F)cc5-c5nncn5C)cc(O)n4)c(=O)c3[nH]2)C1` [Example 7, 2-{[(S)-3-methyl-1-piperidyl]methyl}-4-cyclopropyl-6-{4-[4-fluoro-2-(4-methyl-4H-1,2,4-triazol-3-yl)phenyl]-6-hydroxy-2-pyridyl}-1,6-dihydro-1,6-diaza-7-indenone] displayed a half-inhibitory concentration (IC50) of 100 to 1000 nM. The compound also yielded a concentration giving a half-maximal response (EC50) in the assay on Jurkat cells of 1000 to 5000 nM.

Take `COCCNCc1cc2c(C(F)(F)F)cn(-c3cc(-c4ccc(F)cc4-n4nccc4C(F)(F)F)cc(C4CC4)n3)c(=O)c2[nH]1` [Example 142, 6-[6-cyclopropyl-4-[4-fluoro-2-[5-(trifluoromethyl)pyrazol-1-yl]phenyl]pyridin-2-yl]-2-[(2-methoxyethylamino)methyl]-4-(trifluoromethyl)-1H-pyrrolo[2,3-c]pyridin-7-one]: the 50% inhibitory concentration (IC50) on Cbl-b is < 100 nM. The compound further displayed a concentration giving a half-maximal response (EC50) with Jurkat cells of 100 to 1000 nM.

Broadly, the IC50 is the concentration at which inhibition is half-maximal. Read a low IC50 as greater potency. A word on the EC50: it is the concentration that produces a half-maximal response. Higher therefore signals a less potent agent.
